According to US8795635B2, “Substantially non-aqueous foamable petrolatum based pharmaceutical and cosmetic compositions and their uses” (Foamix Ltd., priority 2006, dated 2014):
In brackets after ≈: the same amount, converted by molar mass. Like-named read-outs stand apart in the source and are kept apart here.

Legend:
[1] = physchem; details: for solubility: organic solvent or mixture
Text: In one or more embodiments, the foamable composition includes a potent solvent, in addition to or in place of one of the hydrophobic solvents, polar solvents or emollients of the composition. A potent solvent is a solvent other than mineral oil that solubilizes a specific active agent substantially better than a hydrocarbon solvent such as mineral oil or petrolatum.
In one or more embodiments, the composition includes at least one active agent in a therapeutically effective concentration; and at least one potent solvent in a sufficient amount to substantially solubilize the at least one active agent in the composition. […] In one or more embodiments, the concentration of the at least one potent solvent is more than about 40% of the at least one solvent of the composition; or even more than about 60%.

[2] = cited from earlier work

SMILES | Solubility in dimethyl isosorbide [1] | Solubility in glycofurol [1] | Solubility in mineral oil [1] | also measured
CC(=O)N1CCN(c2ccc(OCC3COC(Cn4ccnc4)(c4ccc(Cl)cc4Cl)O3)cc2)CC1 (stereo not drawn) [Ketoconazole] | more than 1% | more than 1% | < 0.01% | Solubility in propylene glycol [1]: more than 1%
CCCC(=O)O[C@]1(C(=O)CO)CC[C@H]2[C@@H]3CCC4=CC(=O)CC[C@]4(C)[C@H]3[C@@H](O)C[C@@]21C [Hydrocortisone butyrate] |  | more than 1% | < 0.01% | 
CCC(=O)O[C@]1(C(=O)CCl)[C@@H](C)C[C@H]2[C@@H]3CCC4=CC(=O)C=C[C@]4(C)[C@@]3(F)[C@@H](O)C[C@@]21C [clobestol proprionate] |  |  |  | degree of solubility in water or petrolatum or the composition ([2]; in words): practically insoluble
CCCCC(=O)O[C@]1(C(=O)CO)[C@@H](C)C[C@H]2[C@@H]3CCC4=CC(=O)C=C[C@]4(C)[C@@]3(F)[C@@H](O)C[C@@]21C [Betamethasone valerate] |  | more than 1% | < 0.01% | solubility in water ([2]; in words): practically insoluble
C=C1/C(=C\C=C2/CCC[C@]3(C)[C@@H]([C@H](C)/C=C/[C@@H](O)C4CC4)CC[C@@H]23)C[C@@H](O)C[C@@H]1O [calcipotriol] |  |  |  | solubility in water [2]: 0.6 µg/mL (≈ 0.00145 mM)
C=CC[C@@H]1/C=C(\C)C[C@H](C)C[C@H](OC)[C@H]2O[C@@](O)(C(=O)C(=O)N3CCCC[C@H]3C(=O)O[C@H](/C(C)=C/[C@@H]3CC[C@@H](O)[C@H](OC)C3)[C@H](C)[C@@H](O)CC1=O)[C@H](C)C[C@@H]2OC [tacrolimus] |  |  |  | solubility in water ([2]; in words): insoluble
Cc1cnc(NC(=O)C2=C(O)c3ccccc3S(=O)(=O)N2C)s1 [Meloxicam] |  |  | < 0.001% | solubility ([1]; Solubility in PEG 400): 3700 µg/mL (≈ 10.5 mM); solubility ([1]; Solubility in propylene glycol): 300 µg/mL (≈ 0.854 mM)

The next lines start with results.

Solubility in dimethyl isosorbide [1] | Solubility in glycofurol [1] | Solubility in mineral oil [1] | SMILES | also measured
more than 1% |  | < 0.01% | Cc1ncc([N+](=O)[O-])n1CCO [Metronidazole] | 
 |  | < 0.001% | CC(=O)[C@H]1CC[C@H]2[C@@H]3CCC4=CC(=O)CC[C@]4(C)[C@H]3CC[C@]12C [Progesterone] | solubility ([1]; Solubility in PEG 400): 15300 µg/mL (≈ 48.7 mM)
more than 1% | more than 1% | < 0.01% | C/C(=C\C(=O)OCCCCCCCCC(=O)O)C[C@@H]1OC[C@H](C[C@@H]2O[C@H]2[C@@H](C)[C@H](C)O)[C@@H](O)[C@H]1O [Mupirocin] | Solubility in polyethylene glycol 400 (PEG 400) [1]: more than 1%; Solubility in propylene glycol [1]: more than 1%
